Eleven molecules from US8211933B2, “3.3.0 bicyclic GlyT1 inhibitors and methods of making and using same” (Vanderbilt University, priority 2008, dated 2012) can be followed below.

For one test, the target named is T1, GlyT1 (Homo sapiens, UniProt P48067).
T1 construct: Human placental choriocarcinoma cells endogenously expressing GlyT1 can be cultured using standard conditions; host or cells: JAR human placental choriocarcinoma cells
T1 sequence (P48067 1-706): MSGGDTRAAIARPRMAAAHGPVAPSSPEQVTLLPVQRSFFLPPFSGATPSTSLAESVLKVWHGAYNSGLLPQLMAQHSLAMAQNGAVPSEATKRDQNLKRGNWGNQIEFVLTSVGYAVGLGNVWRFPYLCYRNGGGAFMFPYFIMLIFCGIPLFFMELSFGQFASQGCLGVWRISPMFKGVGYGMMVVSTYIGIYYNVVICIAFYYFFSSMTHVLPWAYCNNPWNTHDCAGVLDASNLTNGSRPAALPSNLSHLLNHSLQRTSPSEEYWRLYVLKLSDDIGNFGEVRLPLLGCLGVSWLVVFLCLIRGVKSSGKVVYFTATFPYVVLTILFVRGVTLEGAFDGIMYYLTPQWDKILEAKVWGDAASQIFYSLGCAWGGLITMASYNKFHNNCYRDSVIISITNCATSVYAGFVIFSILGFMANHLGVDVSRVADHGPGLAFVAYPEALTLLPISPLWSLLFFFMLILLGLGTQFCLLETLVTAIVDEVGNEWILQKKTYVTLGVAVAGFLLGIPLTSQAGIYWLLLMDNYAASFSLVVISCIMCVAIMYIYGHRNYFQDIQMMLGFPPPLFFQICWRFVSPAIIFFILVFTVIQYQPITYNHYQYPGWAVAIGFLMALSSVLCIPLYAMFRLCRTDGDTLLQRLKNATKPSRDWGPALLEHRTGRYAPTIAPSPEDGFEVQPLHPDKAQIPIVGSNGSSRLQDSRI
Briefly: [14C]-glycine uptake in JAR cells endogenously expressing GlyT1 (Cytostar T scintillation proximity). The format is cell-based. The settings on record: inhibition of [14C]-glycine uptake (10 μM), JAR cells, 3 h; read-out: Potency (IC50). The method, then:
Human placental choriocarcinoma cells endogenously expressing GlyT1 can be cultured using standard conditions. Cells can then be grown at 37° C. in a humidified atmosphere 40-48 hours before the assay. Culture medium can be removed from the culture plate, and cells can be incubated with an amount of TBlA buffer with or without the compounds of the present invention for a sufficient period of time. Then an amount of [^14C]-glycine diluted with TBlA can be added to each well. After incubation the microplates can be sealed and counted. Non-specific uptake of [^14C]-glycine can be determined in the presence of unlabeled glycine. To determine potencies, a range of concentrations of the compounds of the present invention can be added to the cells, followed by the fixed concentration of [^14C]-glycine. The concentration of the present compound that inhibited half of the specific uptake of [^14C]glycine (IC50 value) can be determined from the assay data by non-linear curve fitting.
The procedure used was analogous to that disclosed in Williams, J. B.; Mallorga P. J.; Lemaire W.; Williams D. L.; Na S.; Patel S.; Conn J. P.; Pettibone D. J.; Austin C.; Sur C.; “Development of a scintillation proximity assay for analysis of Na+/Cl−-dependent neurotransmitter transporter activity,” ANAL. BIOCHEM.
Cells were plated at a density of 1.3×10^4 cells/well and grown at 37° C. in a humidified atmosphere of 5% CO2 for 40-48 h. Culture medium was removed from the Cytostar T plate and JAR cells were incubated with 30 μl A of TBlA buffer (120 mM NaC1, 2 mM KCl, 1 mM CaCl2, 1 mM MgCl2, 10 mM Hepes, 5 mM L-alanine, pH 7.5 adjusted with 1 M Tris base) with or without multiple concentrations of test compound (added at 2× final concentration) for 1 min. Then 30 μl of [^14C]-glycine (Perkin-Elmer) diluted in TBlA was added to each well to give a final concentration of 10 μM. Cytostar T plates were then incubated in the dark at room temperature for 3 h, sealed with opaque white bottom plate seals (Perkin-Elmer) and clear top plate seals (Topseal A, Perkin-Elmer), and were counted on a Top Count (Packard). Glycine uptake was determined by measuring radioactivity in each well and plotted as a function of concentration of test compound. […] Nonspecific uptake of [^14C]-glycine was determined in the presence of 10 mM cold glycine. [^14C]-taurine (American Radiolabeled Chemicals, Inc.) uptake experiments were performed according to the same protocol except that 10 mM cold taurine was used to determine nonspecific uptake. […] COS-7 cells were transiently transfected with the human GlyT2 cDNA (Origene Technologies Inc., SC303452) using Fugene 6 (Roche) according to the manufacturer's instructions in Dulbecco's modified Eagle's medium (DMEM, Invitrogen) containing 10% Fetal Bovine Serum, 10 mM HEPES, 1 mM sodium pyruvate, penicillin (100 μg/ml), and streptomycin (100 μg/ml). The following day, the cells were plated at a density of 5×10^5 cells/well in Cytostar T plates and maintained at 37° C. in a humidified atmosphere of 5% CO2 for 24 h. GlyT2 glycine uptake experiments were performed according to the same protocol previously described.
For orientation: Scintillation proximity formats need no separation of bound from free tracer.
In general, IC50 refers to the concentration that gives 50% inhibition. For `Cn1cnc(S(=O)(=O)N2CC3CCC(NC(=O)c4ccc(F)c(F)c4)C3C2)c1` (centres unmarked) [Compound 7j, 3,4-difluoro-N-(2-(1-methyl-1H-imidazol-4-ylsulfonyl)octahydrocyclopenta[c]pyrrol-4-yl)benzamide], the IC50 was 903 nM.

Still in this test, the particulars now being: read-out: Potency (IC50).
Regarding `Cn1cnc(S(=O)(=O)N2CC3CCC(NC(=O)c4ccccc4Cl)C3C2)c1` (centres unmarked) [Compound 7b, 2-chloro-N-(2-(1-methyl-1H-imidazol-4-ylsulfonyl)octahydrocyclopenta[c]pyrrol-4-yl)benzamide], the IC50 was 101 nM.
The same measure, in the same setting: next, `Cn1cnc(S(=O)(=O)N2CC3CCC(NC(=O)c4ccc(Cl)cc4)C3C2)c1` (centres unmarked) [Compound 7c, 4-chloro-N-(2-(1-methyl-1H-imidazol-4-ylsulfonyl)octahydrocyclopenta[c]pyrrol-4-yl)benzamide]: 1030 nM; `Cn1cnc(S(=O)(=O)N2CC3CCC(NC(=O)c4ccccc4C(F)(F)F)C3C2)c1` (centres unmarked) [Compound 7d, N-(2-(1-methyl-1H-imidazol-4-ylsulfonyl)octahydrocyclopenta[c]pyrrol-4-y1)-2-(trifluoromethyl)benzamide]: 78 nM; `Cn1cnc(S(=O)(=O)N2CC3CCC(NC(=O)c4ccc(F)cc4F)C3C2)c1` (centres unmarked) [Compound 7e, 2,4-difluoro-N-(2-(1-methy1-1H-imidazol-4-ylsulfonyl)octahydrocyclopenta[c]pyrrol-4-yl)benzamide]: 925 nM.
As to `Cn1cnc(S(=O)(=O)N2CC3CCC(NC(=O)c4ccccc4F)C3C2)c1` (centres unmarked) [Compound 7f, 2-fluoro-N-(2-(1-methyl-1H-imidazol-4-ylsulfonyl)octahydrocyclopenta[c]pyrrol-4-yl)benzamide], the IC50 amounted to 1800 nM.
Still for that read-out and setting: for `Cn1cnc(S(=O)(=O)N2CC3CCC(NC(=O)c4ccc(Cl)c(Cl)c4)C3C2)c1` (centres unmarked) [Compound 7g, 3,4-dichloro-N-(2-(1-methyl-1H-imidazol-4-ylsulfonyl)octahydrocyclopenta[c]pyrrol-4-yl)benzamide] the value was 891 nM; for `Cn1cnc(S(=O)(=O)N2CC3CCC(NC(=O)c4ccc(F)cc4)C3C2)c1` (centres unmarked) [Compound 7h, 4-fluoro-N-(2-(1-methyl-1H-imidazol-4-ylsulfonyl)octahydrocyclopenta[c]pyrrol-4-yl)benzamide], 2200 nM.
On the same count and under the same terms, next, `Cn1cnc(S(=O)(=O)N2CC3CCC(NC(=O)c4c(F)cccc4F)C3C2)c1` (centres unmarked) [Compound 7i, 2,6-difluoro-N-(2-(1-methy1-1H-imidazol-4-ylsulfonyl)octahydrocyclopenta[c]pyrrol-4-yl)benzamide]: 630 nM; `CCCS(=O)(=O)N1CC2CCC(NC(=O)c3ccc(Cl)cc3Cl)C2C1` (centres unmarked) [Compound 71, 2,4-dichloro-N-(2-(propylsulfonyl)octahydrocyclopenta[c]pyrrol-4-yl)benzamide]: 7000 nM.

The test is the same for the next values; noted with them: result in words; inhibition of [14C]-glycine uptake (10 μM), JAR cells, 3 h.
In the case of `Cn1cnc(S(=O)(=O)N2CC3CCC(NC(=O)c4ccc(Cl)cc4Cl)C3C2)c1` (centres unmarked) [Compound 5b, 2,4-dichloro-N-(2-(1-methyl-1H-imidazol-4-ylsulfonyl)octahydrocyclopenta[c]pyrrol-4-yl)benzamide], the “Potency (IC50)” value is listed as “Inactive”.
